Converted amounts (≈) assume the structure as drawn. Values belong to the compound of their own block, whether it stands above or below them.
Experiments:
[1] = test system: Pseudomonas aeruginosa (ATCC 27853); assay: Sensitization to erythromycin, Pseudomonas aeruginosa (ATCC 27853); assay type: cell-based; details: Table 7; P. aureginosa (ATCC 27853)
Method: (§1) Alternatively, “fractional inhibitory concentration (FIC)” is also useful for determination of synergy between the compounds of the invention, or the compounds in combination with known antibiotics. FICs can be performed by checkerboard titrations of compounds in one dimension of a microtiter plate, and of antibiotics in the other dimension, for example. The FIC is calculated by looking at the impact of one antibiotic on the MIC of the other and vice versa. […] Preferably, an FIC of less than 0.5 is obtained for synergism. As used herein, FIC can be determined as follows:
Aliquots of 1 mL of the suspension were added to test tubes containing 1 mL TSB and incrementally varied concentrations of cholic acid derivatives and/or erythromycin or novobiocin. In the sensitization experiments, erythromycin or novobiocin were added 15 minutes later than the cholic acid derivatives. The samples were subjected to stationary incubation at 37° C. for 24 hours. Sample turbidity was determined by measuring absorption at 760 nm (HP 8453 UV-Visible Chemstation, Hewlett Packard). Additionally, an alliquot from each of the samples showing no measurable turbidity was subcultured on TSA plates (alliquots were diluted to provide fewer than 300 CFU). Colonies that grew on the subculture after overnight incubation were counted and the number of CFU/mL in the samples were calculated. The calculated values were compared to the number of CFU/mL in the original inoculum. […]
To measure permeabilization, the FIC values for compounds 1, 2, 5, 106, 10, 112, 133, and 134 with erythromycin, novobiocin, and rifampicin were determined. Concentrations of 0.5, 1.0 or 3.0 μg/mL of these antibiotics were used, and the concentrations of the cholic acid derivatives required to inhibit bacterial growth of Gram-negative strains were determined.

[2] = test system: E. coli (ATCC 10798); assay: MIC and MBC measurement with E. coli (ATCC 10798); assay type: cell-based, Escherichia coli
From the text: (§2) General: Microorganisms. Reference strains were purchased from the American Type Culture Collection (Rockville, Md.) or Bactrol disks from Difeo Laboratories (Detroit, Mich.). The following specific ATCC strains were used: 10798 Escherichia coli, 25922 Escherichia coli, 13883 Klebsiella pneumoniae, 27853 Pseudomonas aeruginosa, 14028 Salmonella typhimurium, 29212 Enterococcus faecalis, 25923 Staphylococcus aureus, 19615 Streptococcus pyogenes, and 90028 Candida albicans. Bacterial strains were maintained on Mueller-Hinton agar plates, and Candida albicans was maintained on Sabouraud Dextrose agar plates.
(§3) Tryptic soy broth (TSB) was made by dissolving 27.5 grams of tryptic soy broth without dextrose (DIFCO Laboratories) in 1 liter of deionized water and sterilizing at 121° C. for 15 minutes. Solid agar (TSA) plates were made by dissolving 6.4 grams of tryptic soy broth and 12 grams of agar (purified grade, Fischer Scientific) in 800 mL of deionized water and sterilizing at 121° C. for 20 minutes. Aliquots (20 mL) of the homogeneous solution were then poured in sterile plastic petri dishes (100×15 mm, Fisher Scientific). Solutions of compounds were made by dissolving the HCl salt of the respective compound into an appropriate amount of deionized and sterilized water followed by microfiltration.
(§4) Aliquots of 1 mL of the suspension were added to test tubes containing 1 mL TSB and incrementally varied concentrations of cholic acid derivatives and/or erythromycin or novobiocin. In the sensitization experiments, erythromycin or novobiocin were added 15 minutes later than the cholic acid derivatives. The samples were subjected to stationary incubation at 37° C. for 24 hours. Sample turbidity was determined by measuring absorption at 760 nm (HP 8453 UV-Visible Chemstation, Hewlett Packard). Additionally, an alliquot from each of the samples showing no measurable turbidity was subcultured on TSA plates (alliquots were diluted to provide fewer than 300 CFU). Colonies that grew on the subculture after overnight incubation were counted and the number of CFU/mL in the samples were calculated. The calculated values were compared to the number of CFU/mL in the original inoculum.

[3] = test system: E. coli (ATCC 10798); assay: Sensitization to erythromycin (concentration lowering the MIC of erythromycin), E. coli (ATCC 10798); assay type: cell-based, Escherichia coli; details: for MIC: concentration required to lower the MIC of erythromycin from 70 μg/mL to 1 μg/mL / MBC (with erythromycin): Table 2, E. coli (ATCC 10798); for MBC (with erythromycin): erythromycin sensitization; for (a) Concentration required to lower the MIC of erythromycin from 70 to 1 μg/mL / (b) MBC with 1 μg/mL erythromycin / FIC values with erythromycin: Table 9, Escherichia coli (ATCC 10798)
Method: as §1, §4
(§5) Ability to permeabilize outer membrane: Compounds 11, 106, and 108-114 (FIG. 1) were tested for antibiotic activity. They were also tested for the ability to permeabilize the outer membrane of Gram-negative bacteria, causing sensitization to hydrophobic antibiotics that cannot cross the outer membrane. The permeabilization of the outer membrane was measured using erythromycin and novobiocin.
(§6) The MICs of erythromycin and novobiocin against E. coli (ATCC 10798) at 70 and >500 μg/mL were measured.

[4] = test system: Pseudomonas aeruginosa (ATCC 27853); assay: MIC and MBC measurement with Pseudomonas aeruginosa (ATCC 27853); assay type: cell-based; details: Table 6; P. aureginosa (ATCC 27853)
From the text: as §2, §3, §4

[5] = test system: E. coli (ATCC 10798); assay: Sensitization to novobiocin (concentration lowering the MIC of novobiocin), E. coli (ATCC 10798); assay type: cell-based, Escherichia coli; details: for (d) Concentration required to lower the MIC of novobiocin from >500 to 1 μg/mL / FIC values with novobiocin: Table 9, Escherichia coli (ATCC 10798)
Method: as §1, §4, §5, §6

[6] = Table 9, Escherichia coli (ATCC 10798)

SMILES: C[C@H](CCCN(C)Cc1ccccc1)[C@H]1CC[C@H]2[C@@H]3[C@H](OCCCCN)C[C@@H]4C[C@H](OCCCCN)CC[C@]4(C)[C@H]3C[C@H](OCCCCN)[C@]12C [Compound 3]
MIC: concentration required to lower the MIC of erythromycin from 240 μg/mL to 5 μg/mL [1]: 6 µg/mL
MIC ([2]; Table 1, E. coli (ATCC 10798)): 6 µg/mL (≈ 8.44 µM)
MIC: concentration required to lower the MIC of erythromycin from 70 μg/mL to 1 μg/mL [3]: 1.5 µg/mL
MIC [4]: 16 µg/mL (≈ 22.5 µM)

SMILES: C[C@H](CCCOCCC[C@@H](C)[C@H]1CC[C@H]2[C@@H]3[C@H](OCCCN)C[C@@H]4C[C@H](OCCCN)CC[C@]4(C)[C@H]3C[C@H](OCCCN)[C@]12C)[C@H]1CC[C@H]2[C@@H]3[C@H](OCCCN)C[C@@H]4C[C@H](OCCCN)CC[C@]4(C)[C@H]3C[C@H](OCCCN)[C@]12C [Compound 12]
MBC ([2]; Table 1, E. coli (ATCC 10798)): 4 µg/mL (≈ 3.59 µM)
MIC ([2]; Table 1, E. coli (ATCC 10798)): 4 µg/mL (≈ 3.59 µM)
MIC: concentration required to lower the MIC of erythromycin from 70 μg/mL to 1 μg/mL [3]: 1.5 µg/mL
MBC (with erythromycin) [3]: 2.5 µg/mL
MIC: concentration required to lower the MIC of novobiocin from >500 μg/mL to 1 μg/mL ([5]; Table 3, E. coli (ATCC 10798)): 2.5 µg/mL

SMILES: C[C@H](CO)[C@H]1CC[C@H]2[C@@H]3[C@H](OCCCN)C[C@@H]4C[C@H](OCCCN)CC[C@]4(C)[C@H]3C[C@H](OCCCN)[C@]12C [Compound 108]
FIC values with erythromycin [3]: 0.071
FIC values with novobiocin [5]: 0.17

SMILES: C[C@H](CCO)[C@H]1CC[C@H]2[C@@H]3[C@H](OCCCN)C[C@@H]4C[C@H](OCCCN)CC[C@]4(C)[C@H]3C[C@H](OCCCN)[C@]12C [Compound 109]
FIC values with erythromycin [3]: 0.071
FIC values with novobiocin [5]: 0.22

SMILES: C[C@H](CCCO)[C@H]1CC[C@H]2[C@@H]3[C@H](OCCCN)C[C@@H]4C[C@H](OCCCN)CC[C@]4(C)[C@H]3C[C@H](OCCCN)[C@]12C [Compound 110]
MBC [2, 6]: 60 µg/mL (≈ 106 µM)
MIC [2, 6]: 36 µg/mL (≈ 63.6 µM)
(a) Concentration required to lower the MIC of erythromycin from 70 to 1 μg/mL [3]: 2.0 µg/mL
(b) MBC with 1 μg/mL erythromycin [3]: 50 µg/mL
FIC values with erythromycin [3]: 0.070
(d) Concentration required to lower the MIC of novobiocin from >500 to 1 μg/mL [5]: 4.0 µg/mL
FIC values with novobiocin [5]: 0.11

The next lines start with results.

MIC ([2]; Table 1, E. coli (ATCC 10798)): 46 µg/mL (≈ 73.4 µM)
MIC [4]: 50 µg/mL (≈ 79.7 µM)
SMILES: C[C@H](CCCN(C)Cc1ccccc1)[C@H]1CC[C@H]2[C@@H]3[C@H](OCCN)C[C@@H]4C[C@@H](OCCN)CC[C@]4(C)[C@H]3C[C@H](OCCN)[C@]12C [Compound 8]
MIC: concentration required to lower the MIC of erythromycin from 240 μg/mL to 5 μg/mL [1]: 40 µg/mL
MIC: concentration required to lower the MIC of erythromycin from 70 μg/mL to 1 μg/mL [3]: 10 µg/mL

MIC ([2]; Table 1, E. coli (ATCC 10798)): 3 µg/mL (≈ 4.42 µM)
MIC [4]: 8 µg/mL (≈ 11.8 µM)
SMILES: CCCCCCCCOCCC[C@@H](C)[C@H]1CC[C@H]2[C@@H]3[C@H](OCCCN)C[C@@H]4C[C@H](OCCCN)CC[C@]4(C)[C@H]3C[C@H](OCCCN)[C@]12C [Compound 9]
MIC: concentration required to lower the MIC of erythromycin from 240 μg/mL to 5 μg/mL [1]: 5 µg/mL
MBC ([2]; Table 1, E. coli (ATCC 10798)): 10 µg/mL (≈ 14.7 µM)
MIC: concentration required to lower the MIC of erythromycin from 70 μg/mL to 1 μg/mL [3]: 3 µg/mL
MBC (with erythromycin) [3]: 3 µg/mL

MIC ([2]; Table 1, E. coli (ATCC 10798)): 140 µg/mL (≈ 267 µM)
MIC [2, 6]: 140 µg/mL (≈ 267 µM)
SMILES: CC(O)[C@H]1CC[C@H]2[C@@H]3[C@H](OCCCN)C[C@@H]4C[C@H](OCCCN)CC[C@]4(C)[C@H]3C[C@H](OCCCN)[C@]12C (stereo partly shown) [Compound 11]
MBC ([2]; Table 1, E. coli (ATCC 10798)): >160 µg/mL
MBC [2, 6]: >160 µg/mL
MIC: concentration required to lower the MIC of erythromycin from 70 μg/mL to 1 μg/mL [3]: 40 µg/mL
MBC (with erythromycin) [3]: >160 µg/mL
(a) Concentration required to lower the MIC of erythromycin from 70 to 1 μg/mL [3]: 20 µg/mL
(b) MBC with 1 μg/mL erythromycin [3]: 180 µg/mL
FIC values with erythromycin [3]: 0.16
MIC: concentration required to lower the MIC of novobiocin from >500 μg/mL to 1 μg/mL ([5]; Table 3, E. coli (ATCC 10798)): 40 µg/mL
MBC (with novobiocin) ([5]; Table 3, E. coli (ATCC 10798), novobiocin sensitization): 140 µg/mL
(d) Concentration required to lower the MIC of novobiocin from >500 to 1 μg/mL [5]: 40 µg/mL
FIC values with novobiocin [5]: 0.29

— patent US7598234B2, “Steroid derived antibiotics” (Brigham Young University, priority 1998, dated 2009)
